Results: article PMC9457773 (Molecules, 2022)
Where two headings read alike, the source gives them in different places.

Tests used:
[1] = rat; for Stability, Bench-Top: measured concentration: 4 h; for Stability, Autosampler: measured concentration: 12 h; for Stability, Long-Term: measured concentration: 30 days
Description: (§1) A 5 μL aliquot of the mixed working solution was added to 45 μL of blank plasma to prepare the calibration standards.
(§2) The selectivity of the method was assessed by comparing the chromatograms of six independent blank rat plasma samples, simulated plasma samples in which blank rat plasma samples were spiked with working solution at a lower limit of quantitation (LLOQ) and IS, and actual plasma samples collected from rats. […] Different concentrations of the QC and LLOQ samples, with six replicates at each concentration, were used to evaluate precision and accuracy, and inter-batch precision and accuracy were evaluated by measurements for three consecutive days. The precision was expressed as the coefficient of variation (CV%), and the accuracy was expressed as the relative error (RE%). The extraction recovery was evaluated by comparing the peak areas of blank plasma spiked with working solution pre-extraction and blank plasma spiked with working solution post-extraction. The matrix effect was evaluated by the ratio of the peak area of the analyte in the plasma to the peak area of the analyte in solution at three concentrations of the QC samples. […] Three concentrations of the QC samples, with six replicates at each concentration level, were used to examine the stability of the three analytes at room temperature for 4 h, in the autosampler for 12 h, at −80 °C for 30 days, and freeze–thaw three times.

[2] = literature value, Introduction, cited from earlier work
[3] = literature statement in words, Introduction, cited from earlier work
[4] = Pharmacokinetic and drug–drug interaction study in rats (plasma, UPLC–MS/MS); conditions: for AUC(0-inf): AUCinf; for AUC(0-t): AUClast; for CL/F: CLz/F; for Tmax: median (range); for Vd/F: Vz/F; for half-life: t1/2z
Description: First, 50 μL of the plasma sample was added to 5 μL of the mixture IS working solution and 500 μL of the extraction reagent (methyl tert-butyl ether and ethyl acetate, 1:4) vortex-mixed for 3 min and then centrifuged at 12,000 rpm for 10 min. Next, 400 μL of supernatant was transferred into a new centrifuge tube, which was blown dry under a stream of nitrogen, and the residue was re-solubilized with 150 μL of 50% acetonitrile–water.
The concentrations of analytes were determined by UPLC–MS/MS, which consisted of an LC-30A ultra-performance liquid chromatography (Shimadzu, Japan), and Sciex Triple Quad 5500 tandem triple quadrupole mass spectrometer (Applied Biosystems Sciex, Framingham, MA, USA). The XSelect HSS T3 column (2.1 mm × 100 mm, 2.5 μm, Waters, Milford, MA, USA) was used for chromatographic separation. Phase A (0.1% formic acid in ultrapure water containing 5 mM ammonium acetate) and phase B (acetonitrile) were used as the mobile phases for gradient elution at 0.35 mL/min.
The experimental animals were randomly divided into five groups (n = 6 per group). […] Approximately 0.25 mL of blood was collected from the orbital venous plexus of rats in pre-heparinized centrifuge tubes. […] Blood samples were centrifuged at 3500 rpm for 10 min, and the plasma was transferred to new centrifuge tubes and then stored at −80 °C.
The Cmax and Tmax (time to maximum plasma concentration) were read directly from the drug concentrations. The other pharmacokinetic parameters were analyzed using a non-compartmental analysis with Phoenix WinNonLin 8.2 software (Pharsight, Mountain View, Certara, CA, USA).

[5] = literature value, Introduction; cited from earlier work
[6] = Stability of QC samples in rat plasma under various storage conditions; conditions: for Stability, Autosampler: measured concentration / Stability, Freeze-Thaw: measured concentration / Stability, Bench-Top: measured concentration / Stability, Long-Term: measured concentration: rat plasma QC, n = 6; for Stability, Autosampler: measured concentration: autosampler for 12 h; for Stability, Freeze-Thaw: measured concentration: freeze–thaw three times; for Stability, Bench-Top: measured concentration: room temperature for 4 h; for Stability, Long-Term: measured concentration: −80 °C for 30 days
Description: as §1, §2

[7] = Sprague Dawley, rat, plasma, po, 1.2 mg/kg, lenvatinib in rat plasma, lenvatinib 1.2 mg/kg oral co-administered with canagliflozin 10 mg/kg (VLEN+CA), n = 6, mean ± SD
[8] = Sprague Dawley, rat, plasma, po, 1.2 mg/kg, lenvatinib in rat plasma, oral single dose lenvatinib 1.2 mg/kg alone (IILEN), n = 6, mean ± SD
[9] = lenvatinib (1.2 mg/kg) in the presence of canagliflozin (10 mg/kg) compared to lenvatinib alone, rats
[10] = lenvatinib in rat plasma, oral single dose lenvatinib 1.2 mg/kg alone (IILEN), n = 6, mean ± SD
[11] = Sprague Dawley, rat, plasma, po, 100 mg/kg, sorafenib in rat plasma, oral single dose sorafenib 100 mg/kg alone (ISOR), n = 6, mean ± SD
[12] = Sprague Dawley, rat, plasma, po, 100 mg/kg, sorafenib in rat plasma, sorafenib 100 mg/kg oral co-administered with canagliflozin 10 mg/kg (IVSOR+CA), n = 6, mean ± SD

COc1cc2nccc(Oc3ccc(NC(=O)NC4CC4)c(Cl)c3)c2cc1C(N)=O [lenvatinib, Lenvatinib]
Stability, Freeze-Thaw: measured concentration ([1]; 0.5 ng/mL): 0.53 ± 0.03 ng/mL
Stability, Freeze-Thaw: measured concentration ([1]; 150 ng/mL): 157.33 ± 11.02 ng/mL
Stability, Freeze-Thaw: measured concentration ([1]; 800 ng/mL): 725.83 ± 18.06 ng/mL
Stability, Bench-Top: measured concentration ([1]; 0.5 ng/mL): 0.54 ± 0.03 ng/mL
Stability, Bench-Top: measured concentration ([1]; 150 ng/mL): 156.67 ± 7.42 ng/mL
Stability, Bench-Top: measured concentration ([1]; 800 ng/mL): 794.00 ± 18.24 ng/mL
Stability, Autosampler: measured concentration ([1]; 0.5 ng/mL): 0.53 ± 0.04 ng/mL
Stability, Autosampler: measured concentration ([1]; 150 ng/mL): 162.67 ± 7.42 ng/mL
Stability, Autosampler: measured concentration ([1]; 800 ng/mL): 819.50 ± 30.36 ng/mL
Stability, Long-Term: measured concentration ([1]; 0.5 ng/mL): 0.47 ± 0.03 ng/mL
Stability, Long-Term: measured concentration ([1]; 150 ng/mL): 157.00 ± 12.63 ng/mL
Stability, Long-Term: measured concentration ([1]; 800 ng/mL): 714.00 ± 24.44 ng/mL
half-life [2]: 28 h
solubility [3]: low
AUC(0-inf) [4, 7]: 7280 ± 1170 ng·h/mL
AUC(0-t) [4, 7]: 7280 ± 1170 ng·h/mL
CL/F [4, 7]: 2.83 mL/min/kg
CL/F [4, 8]: 3.67 mL/min/kg
Cmax [4, 7]: 985 ± 162 ng/mL
Cmax [4, 8]: 721 ± 144 ng/mL
Tmax ([4]; Sprague Dawley, rat, plasma, po, 1.2 mg/kg, Tmax, lenvatinib in rat plasma, oral single dose lenvatinib 1.2 mg/kg alone (IILEN), n = 6): 1.75 h
Vd/F [4, 7]: 1.56 ± 0.29 L/kg
Vd/F [4, 8]: 3.31 ± 1.51 L/kg
half-life [4, 7]: 6.49 ± 1.04 h
half-life [4, 8]: 10.5 ± 4.53 h
decrease of CLz/F [4, 9]: 22.7%
decrease of Vz/F [4, 9]: 52.9%
decrease of t1/2 [4, 9]: 38%
increase of AUCinf [4, 9]: 28.9%
increase of AUClast [4, 9]: 28.9%
increase of Cmax [4, 9]: 36.2%
Tmax ([4]; lenvatinib in rat plasma, lenvatinib 1.2 mg/kg oral co-administered with canagliflozin 10 mg/kg (VLEN+CA), n = 6): 1.50 (0.88–1.63) h
AUCinf [4, 10]: 5653 ± 1299 ng·h/mL
AUClast [4, 10]: 5640 ± 1292 ng·h/mL
increase of AUC ([4]; lenvatinib in the presence of canagliflozin, rats, abstract, AUC not specified as last or inf): 28.9%
plasma protein binding rate [5]: approximately 98%

CNC(=O)c1cc(Oc2ccc(NC(=O)Nc3ccc(Cl)c(C(F)(F)F)c3)cc2)ccn1 [sorafenib, Sorafenib]
time to peak blood concentration ([2]; after oral administration): approximately 3 h
solubility [3]: poor
permeability ([3]; membrane permeability): high
AUC(0-inf) [4, 11]: 40300 ng·h/mL
AUC(0-inf) [4, 12]: 41300 ng·h/mL
AUC(0-t) [4, 11]: 40000 ng·h/mL
AUC(0-t) [4, 12]: 41200 ng·h/mL
CL/F [4, 11]: 47.7 mL/min/kg
CL/F [4, 12]: 42 mL/min/kg
Cmax [4, 11]: 1920 ± 298 ng/mL
Cmax [4, 12]: 2200 ± 535 ng/mL
Vd/F [4, 11]: 49 ± 18.8 L/kg
Vd/F [4, 12]: 38.3 ± 10.1 L/kg
half-life [4, 11]: 12.3 ± 2.23 h
Tmax ([4]; sorafenib in rat plasma, oral single dose sorafenib 100 mg/kg alone (ISOR), n = 6): 8.00 (7.00–8.00) h
t1/2z ([4]; sorafenib in rat plasma, sorafenib 100 mg/kg oral co-administered with canagliflozin 10 mg/kg (IVSOR+CA), n = 6, mean ± SD): 10.47 ± 0.94 h
plasma protein binding rate [5]: 99.5%
stability during the different processing and storage conditions ([6]; rat plasma QC samples, room temperature 4 h, autosampler 12 h, −80 °C 30 days, three freeze–thaw cycles): stable
Stability, Autosampler: measured concentration ([6]; nominal 10 ng/mL): 11.13 ± 0.24 ng/mL
Stability, Freeze-Thaw: measured concentration ([6]; nominal 10 ng/mL): 10.55 ± 0.43 ng/mL
Stability, Bench-Top: measured concentration ([6]; nominal 10 ng/mL): 10.97 ± 0.29 ng/mL
Stability, Long-Term: measured concentration ([6]; nominal 10 ng/mL): 10.51 ± 0.43 ng/mL
Stability, Autosampler: measured concentration ([6]; nominal 1500 ng/mL): 1540.00 ± 95.71 ng/mL
Stability, Freeze-Thaw: measured concentration ([6]; nominal 1500 ng/mL): 1531.67 ± 117.88 ng/mL
Stability, Bench-Top: measured concentration ([6]; nominal 1500 ng/mL): 1551.67 ± 84.00 ng/mL
Stability, Long-Term: measured concentration ([6]; nominal 1500 ng/mL): 1565.00 ± 123.25 ng/mL
Stability, Autosampler: measured concentration ([6]; nominal 3750 ng/mL): 3961.67 ± 102.26 ng/mL
Stability, Freeze-Thaw: measured concentration ([6]; nominal 3750 ng/mL): 3698.33 ± 72.78 ng/mL
Stability, Bench-Top: measured concentration ([6]; nominal 3750 ng/mL): 3948.33 ± 99.88 ng/mL
Stability, Long-Term: measured concentration ([6]; nominal 3750 ng/mL): 3583.33 ± 67.43 ng/mL
